By IC50 is commonly meant the concentration needed to halve the response being measured. Read a low IC50 as greater potency.

This assay can be described thus: In vitro inhibitory activity against [3H]DTG binding to Sigma opioid receptor in guinea pig brain membrane homogenates.
For `NC(=Nc1ccccc1I)NC12CC3CC(CC(C3)C1)C2`, the IC50 turned out to be 6 nM. Under `NC(=NC1CC2CCC1C2)Nc1ccccc1I` (stereo not given) stands 4 nM; under `Cc1cc([N+](=O)[O-])ccc1N=C(N)Nc1ccccc1C`, 37 nM; under `NC(=Nc1ccc(Br)cc1)Nc1ccc(Br)cc1`, 540 nM. The figure for `Cc1cc([N+](=O)[O-])ccc1/N=C(/N)Nc1ccc([N+](=O)[O-])cc1C` is 760 nM; for `Cc1ccccc1N=C(N)Nc1cccc(O)c1` it is 207 nM. Under `Cc1ccccc1N=C(N)NC1CCCCC1` stands 12 nM.

`Cc1cc([N+](=O)[O-])ccc1NC(N)=Nc1cccc(O)c1`: the IC50 was 118 nM. Under `N=C(NCc1ccccc1)NCc1ccccc1` stands 90 nM; under `Cc1ccccc1NC(N)=NC1CC2CCC1C2` (stereo not given), 6 nM.

Values taken from BindingDB's records for doi:10.1021/jm00171a016 (University of Oregon, 1990).
